The text below walks through data of US20200123422A1, “Photocurable Adhesive Sheet, Image Display Device Constituent Laminate, Image Display Device Production Method and Method for Preventing Corrosion of Conductive Member” (Mitsubishi Chemical Corporation, priority 2017, published 2020).

Data set [1] can be described thus: Absorption coefficient at a wavelength of 365 nm. It is filed as physicochemical. Particulars: at 365 nm. The source says: The absorption coefficient can be determined by the following formula.
α365: absorption coefficient at a wavelength of 365 nm [mL/(g·cm)]
A365: absorbance at a wavelength of 365 nm
c: solution concentration [g/mL]
d: optical path length (of quartz cell) [cm]
In addition, when calculating the absorption coefficient, an absorbance converted from the measurement result of the transmittance may also be used.
T365: light transmittance at a wavelength of 365 nm [%]

A further data set is described as follows: Aqueous solubility. It is filed as physicochemical. As to the method:
From such a viewpoint, the metal corrosion inhibitor preferably has an aqueous solubility at 25° C. of 20 g/L or more, more preferably 50 g/L or more, particularly preferably 100 g/L or more.

Converted amounts (≈) assume the structure as drawn.

As usually defined, the aqueous solubility is how much of the substance goes into solution per volume. In the case of `c1c[nH]nn1` [Example D-1, 1,2,3-triazole], the absorption coefficient in data set [1] is 0.3 mL/g/cm. The aqueous solubility in “Aqueous solubility” is listed as > 1,000 g/L.

As for `c1nc[nH]n1` [Example D-2, 1,2,4-triazole], in data set [1], the absorption coefficient turned out to be 0.3 mL/g/cm. Further, the aqueous solubility in “Aqueous solubility” is on record as > 1,000 g/L.

`c1ccc2[nH]nnc2c1` [Example D-3, 1,2,3-benzotriazole]: the absorption coefficient in data set [1] came to 0.8 mL/g/cm. The aqueous solubility in the data set “Aqueous solubility” came out at 20 g/L (≈ 168 mM).

What is called solubility is the dissolved amount per volume that the medium holds. The low end stands for little dissolved substance, the high end for much dissolved substance. Turning to `Sc1nnc(S)s1` [Example D-4, 2,5-dimercapto-1,3,4-thiadiazole, reference compound], in data set [1], the absorption coefficient was determined as 90 mL/g/cm. Moreover, the solubility in “Aqueous solubility” (water, 25 °C) amounted to 20 mg/mL (≈ 133 mM).

Molecule `S=c1[nH]c2ccccc2s1` [Example D-5, mercaptobenzothiazole, reference compound] came in with an absorption coefficient in data set [1] of 65 mL/g/cm. Further, the aqueous solubility in “Aqueous solubility” worked out at 0.3 g/L (≈ 1.79 mM).
